Laboratory results reported in patent US12662530B2, “Anti-ADM-antibodies binding to the free N-terminus for accelerated transition of ADM-Gly to bio-ADM in patients with ADM-Gly/ bio-ADM ratio above a threshold and combination with vitamin C” (SphingoTec GmbH, priority 2020, dated 2026).

Tests used:
native human plasma PAM = assay: Formation of bio-ADM by native human PAM in Li-Heparin plasma, with and without exogenous ADM-Gly; format: biochemical; conditions: without addition of exogenous ADM-Gly; HAM8101 300 μg/mL; 90 minutes
Method: In a further experiment we investigated the formation of bio-ADM from ADM-Gly by native human plasma PAM and the influence of N-terminal- and mid-regional anti-adrenomedullin antibodies.
Human Li-Heparin plasma (pool of 3 specimen) was used as source of human native PAM. The amidation reaction was performed in a total volume of 120 μl at 37° C. 96 μl of plasma were spiked with either HAM8101 (375 μg/mL final concentration) or ADM-Gly (5 ng/mL final concentration) or with both. As control, equal volumes of 100 mM Tris-HCl, pH 7.5 were added to untreated plasma. The prepared samples were allowed to chill for 15 minutes at room temperature. The amidation reaction was started by addition of 24 μl of PAM-reaction buffer resulting in final concentrations of 2 mM L-Ascorbate and 5 μM CuSO4, respectively. The final concentrations of HAM8101 and ADM-Gly were 300 μg/mL and 4 ng/mL, respectively. The reaction was allowed to proceed for 90 minutes at 37° C. After 0 min, 30 min, 60 min and 90 min of incubation, the reaction was stopped by addition of 20 mM EDTA (final concentration). The concentration of bio-ADM in the reaction sample was quantified using the Sphingotest® bio-ADM immunoassay as described recently (Weber et al. 2017. JALM 2(2): 222-233).

human native PAM [1] = assay: Native human PAM activity in human serum with NT- and MR-anti-ADM antibodies; format: biochemical; conditions: antibody 100 μg/mL; FIG. 9
Method: Human serum was used as source of human native PAM. Each sample (20 μl) was diluted two-fold in 100 mM Tris-HCl in duplicate. The amidation reaction was initiated by addition of 160 μl of NT-ADM antibodies (HAM8101, AK1373, AK1388, AK1398 or AK1434) or MR-ADM antibodies (ADM43, ADM38, ADM41, ADM2901, ADM2902 and ADM2903) containing PAM-reaction buffer (100 mM Tris-HCl, pH 7.5, 6.25 μM CuSO4, 2.5 mM Ascorbate, 125 μg/mL Catalase, 62.5 μM Amastatin, 250 μM Leupeptin, and 36 ng/mL synthetic 1-53 Adrenomedullin-Gly as substrate). The final antibody concentrations were 100 μg/mL, respectively. Afterwards, 100 μl of each individual reaction of duplicated samples were combined and transferred into 20 μl of 200 mM EDTA to terminate the amidation reaction and thus to generate a t=0 minutes reaction time-point followed by incubation at 37° C. for 40 minutes. Afterwards the non-terminated reactions were stopped with 10 μl of 200 mM EDTA. To determine the PAM activity in NT-ADM antibody containing samples, bio-ADM was quantified in each reaction using the Sphingotest® bio-ADM immunoassay (Weber et al. 2017, supra). The MR-ADM antibody containing reaction was transferred to an alternative bio-ADM assay (description below). A control reaction without antibodies was measured in both bio-ADM assays. For each sample the difference between t=40 min and t=0 min bio-ADM concentration was calculated. […]

human native PAM [2] = assay: bio-ADM maturation activity (AMA) in samples of healthy subjects before and after administration; format: in vivo
Method: Human serum was used as source of human native PAM. Each sample (20 μl) was diluted two-fold in 100 mM Tris-HCl in duplicate. The amidation reaction was initiated by addition of 160 μl of NT-ADM antibodies (HAM8101, AK1373, AK1388, AK1398 or AK1434) or MR-ADM antibodies (ADM43, ADM38, ADM41, ADM2901, ADM2902 and ADM2903) containing PAM-reaction buffer (100 mM Tris-HCl, pH 7.5, 6.25 μM CuSO4, 2.5 mM Ascorbate, 125 μg/mL Catalase, 62.5 μM Amastatin, 250 μM Leupeptin, and 36 ng/mL synthetic 1-53 Adrenomedullin-Gly as substrate). The final antibody concentrations were 100 μg/mL, respectively. Afterwards, 100 μl of each individual reaction of duplicated samples were combined and transferred into 20 μl of 200 mM EDTA to terminate the amidation reaction and thus to generate a t=0 minutes reaction time-point followed by incubation at 37° C. for 40 minutes. Afterwards the non-terminated reactions were stopped with 10 μl of 200 mM EDTA. To determine the PAM activity in NT-ADM antibody containing samples, bio-ADM was quantified in each reaction using the Sphingotest® bio-ADM immunoassay (Weber et al. 2017, supra). The MR-ADM antibody containing reaction was transferred to an alternative bio-ADM assay (description below). A control reaction without antibodies was measured in both bio-ADM assays. For each sample the difference between t=40 min and t=0 min bio-ADM concentration was calculated. PAM activity is described as ng bio-ADM formed per hour and L of sample and was normalized to the reaction without antibody addition, which was set as 100%.
The formation of bio-ADM from ADM-Gly by recombinant human PAM enzyme and the invivo influence of the N-terminal anti-Adrenomedullin antibody HAM8101 using samples from healthy subjects that received HAM8101 was investigated by measuring the bio-ADM maturation activity (AMA).
Samples from n=3 subjects from each administration group before and 1 hour after administration of HAM8101 were used. Activity was determined as described for Serum samples in example 5b). The assay was calibrated using recombinant human PAM of known activity (InVivo Biotech Services GmbH, Hennigsdorf). Calibrators, controls and samples were treated in the same manner. The produced bio-ADM in the reaction-samples was quantified using the Sphingotest® bio-ADM assay (Weber et al., 2017). For each sample the difference of the t=40 min and t=0 min signal (RLUs, relative light units) was calculated and the signal (RLU(t40−t0 min)) of the calibrator was used to determine the AMA in tested serum samples. AMA is expressed as ng bio-ADM formed per hour and Liter of sample (ng/[h*L]).

native PAM = assay: ADM maturation activity (AMA) of native PAM in Li-Heparin plasma with antibody and varying L-ascorbate; format: biochemical, human; conditions: FIG. 15
Method: A serial antibody-dilution with concentrations of 0, 5, 10, 50, 100, 500 and 3000 μg/mL per well, respectively (in 20 μl) were pipetted into 96-well micro-titer plates. Then 160 μl PAM reaction buffer (100 mM Tris-HCl, 6.25 μM CuSO4, 62.5 μM amastatin, 250 μM leupeptin, 36 ng/mL ADM-Gly) with varying L-ascorbate concentrations was added to the wells and incubated for 15 min. Afterwards the reaction was started by addition of 20 μl of Li-Heparin plasma, containing native PAM Immediately after addition of plasma, 100 μl from each well were removed and inactivated by addition of EDTA (20 mM final concentration) to generate a t=0 minutes reaction point. Inactivated and non-inactivated samples were incubated for 40 minutes at 37° C. and the reaction in non-inactivated samples was stopped as described above. For quantification of produced ADM-NH2 the Sphingotest® bio-ADM Kit (Weber et al. 2017) was utilized according to manufacturer's manual. The ADM maturation activity (AMA) was calculated according to equation 1 (DF=dilution factor of sample matrix).

[3] = Geven et al. 2017; cited from earlier work

HAM8101: humanized N-terminal anti-ADM antibody, heavy chain SEQ ID No. 35, light chain SEQ ID No. 36
change in bio-ADM concentration (native human plasma PAM): No change in bio-ADM concentration
influence on amidating activity compared within the tested antibodies of the same region (human native PAM [1]): showed the strongest influence
AMA increased by (human native PAM [2]; group 1 (0.5 mg/kg), after 1 hour): approximately 60%
AMA increased by (human native PAM [2]; group 1 (0.5 mg/kg), after 4 hours): ~40%
AMA increased by (human native PAM [2]; group 1 (0.5 mg/kg), after 24 hours): ~52%
AMA increased by (human native PAM [2]; group 2 (2 mg/kg), after 1 hour): approximately 27%
AMA increased by (human native PAM [2]; group 2 (2 mg/kg), after 4 hours): ~25%
AMA increased by (human native PAM [2]; group 2 (2 mg/kg), after 24 hours): ~40%
AMA increased by (human native PAM [2]; group 3 (8 mg/kg), after 1 hour): approximately 65%
AMA increased by (human native PAM [2]; group 3 (8 mg/kg), after 4 hours): ~48%
AMA increased by (human native PAM [2]; group 3 (8 mg/kg), after 24 hours): approximately 60%
increase of the bio-ADM formation of PAM (native PAM; 100 μg/mL of HAM8101 in the amidation assay, Li-Heparin plasma): 40%
effect on the amidation for each ascorbate concentration assayed (native PAM; HAM8101 0-3000 μg/mL): concentration dependent positive effect on the amidation
safety and tolerability, phase I study [3]: no serious adverse events were observed
